As a reminder, the NOAEL is the highest dose or exposure tested at which no adverse effect was seen.

In brackets after ≈: the same amount, converted by molar mass.

The subject of one series is Apis mellifera. Conditions: acute; duration: 48 hours; dermal; mortality.
In a further series the test system is Daphnia magna. To be noted: chronic/long-term; duration: 21 days; reproduction.
The next series deals with Colinus virginianus. Conditions: acute, oral, mortality.

As for `Cc1cc(C)c(C2=C(OC(=O)CC(C)(C)C)C3(CCCC3)OC2=O)c(C)c1` [Spiromesifen], the NOAEL in the series with Mus musculus (chronic, duration: 18 months) was found to be 3 mg/kg-day; in the series on Mus musculus (subchronic, duration: 90 days, oral, clinical chemistry), 3 mg/kg-day; in the series with Rattus norvegicus (acute, neurology), 2000 mg/kg-day. Further, the NOEC is 229 mg/kg in the series with Anas platyrhynchos (reproductive, reproduction); 0.00025 mg/L in the series with Daphnia magna; 30 mg/kg-day with Rattus norvegicus (reproduction developmental, reproduction); 4.32 mg/kg with Tagia sp. (chronic/long-term, duration: 56 days, reproduction); 0.00473 mg/L with Oncorhynchus mykiss (chronic/long-term, duration: 97 days). Besides, the LC50 in the series on Anas platyrhynchos (short-term, oral, feed, mortality) was above 5000 mg/kg; with Colinus virginianus (diet), above 5000 mg/kg; in the series on Tagia sp. (acute, duration: 14 days, mortality), above 1000 mg/kg; in the series on Oncorhynchus mykiss (acute, duration: 96 hours, mortality), 0.016 µg/mL (≈ 0.0432 µM). Besides, the LD50 with Apis mellifera is above 200 µg/piece; with Colinus virginianus it was above 2000 mg/kg; with Rattus norvegicus (acute, oral, mortality), above 2500 mg/kg.
